Data published in article PMC9862168, “Inhibition of ANO1 by Cis- and Trans-Resveratrol and Their Anticancer Activity in Human Prostate Cancer PC-3 Cells” (International Journal of Molecular Sciences, 2023).

Target: T1, ANO1 (Homo sapiens, UniProt Q5XXA6)
T1 sequence (Q5XXA6 1-986): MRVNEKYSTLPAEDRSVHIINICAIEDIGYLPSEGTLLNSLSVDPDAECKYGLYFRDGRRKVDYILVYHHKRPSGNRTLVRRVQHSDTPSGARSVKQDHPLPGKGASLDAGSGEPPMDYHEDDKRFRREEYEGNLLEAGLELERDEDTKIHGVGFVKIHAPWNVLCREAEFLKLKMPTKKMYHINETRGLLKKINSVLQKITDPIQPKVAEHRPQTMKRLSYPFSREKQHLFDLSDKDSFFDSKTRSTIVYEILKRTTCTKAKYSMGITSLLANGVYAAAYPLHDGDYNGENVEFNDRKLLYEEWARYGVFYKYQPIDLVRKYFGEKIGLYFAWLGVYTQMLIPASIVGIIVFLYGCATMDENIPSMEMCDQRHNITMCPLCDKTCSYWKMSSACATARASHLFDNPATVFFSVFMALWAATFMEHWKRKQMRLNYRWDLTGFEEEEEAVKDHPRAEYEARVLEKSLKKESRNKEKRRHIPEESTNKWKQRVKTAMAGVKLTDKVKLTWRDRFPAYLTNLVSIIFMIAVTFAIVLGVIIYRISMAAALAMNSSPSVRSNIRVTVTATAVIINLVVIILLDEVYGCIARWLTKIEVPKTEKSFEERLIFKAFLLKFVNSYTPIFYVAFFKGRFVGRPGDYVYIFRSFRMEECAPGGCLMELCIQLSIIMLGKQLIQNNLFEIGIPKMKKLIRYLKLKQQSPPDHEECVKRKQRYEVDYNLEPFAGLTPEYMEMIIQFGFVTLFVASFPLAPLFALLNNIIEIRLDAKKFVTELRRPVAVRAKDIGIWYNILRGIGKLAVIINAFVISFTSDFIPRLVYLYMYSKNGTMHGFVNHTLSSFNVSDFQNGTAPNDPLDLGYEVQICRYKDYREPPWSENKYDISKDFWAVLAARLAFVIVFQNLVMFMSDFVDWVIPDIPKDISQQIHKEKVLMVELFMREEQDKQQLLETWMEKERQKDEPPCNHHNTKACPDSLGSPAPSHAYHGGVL
Assay: YFP fluorescence quenching in FRT cells expressing human ANO1; also Ussing chamber and whole-cell patch clamp in HEK293T
Assay type: cell-based

Structure (SMILES) | IC50 [µM]
Oc1ccc(/C=C\c2cc(O)cc(O)c2)cc1 [cis-resveratrol] | 10.6
Oc1ccc(/C=C/c2cc(O)cc(O)c2)cc1 [trans-resveratrol] | 102
